Values after ≈ are worked out from the molar mass of the structure shown. Structures can show the parent of a compound that is named as a salt. Where two headings read alike, the source gives them in different places.
What was measured:
NCI-H460 = assay: Human cancer cell line growth inhibition, lung-NSC NCI-H460; conditions: for TGI: total growth inhibition
SF-295 = assay: Human cancer cell line growth inhibition, CNS SF-295; conditions: for TGI: total growth inhibition
P388 = assay: Murine lymphocytic leukemia P388 cell line inhibition
DU-145 = assay: Human cancer cell line growth inhibition, prostate DU-145; conditions: for TGI: total growth inhibition
KM20L2 = assay: Human cancer cell line growth inhibition, colon KM20L2; conditions: for TGI: total growth inhibition
BXPC-3 = assay: Human cancer cell line growth inhibition, pancreas-a BXPC-3; conditions: for TGI: total growth inhibition
Ovcar-3 = assay: Human cancer cell line growth inhibition, ovarian Ovcar-3; conditions: for TGI: total growth inhibition

Row | Compound | GI50 (NCI-H460; Homo sapiens, NCI-H460) | TGI (NCI-H460; Lung-NSC NCI-H460) | TGI (SF-295; CNS SF-295) | GI50 (SF-295; Homo sapiens, SF-295) | ED50 (P388; Murine leukemia P388) | GI50 (DU-145; Homo sapiens, DU-145) | TGI (DU-145; Prostate DU-145) | TGI (KM20L2; Colon KM20L2) | GI50 (KM20L2; Homo sapiens, KM-20L2) | GI50 (BXPC-3; Homo sapiens, BXPC-3) | TGI (BXPC-3; Pancreas-a BXPC-3) | GI50 (Ovcar-3; Homo sapiens, OVCAR-3) | TGI (Ovcar-3; Ovarian Ovcar-3) | GI50 (NCI-H460; Lung-NSC NCI-H460) | GI50 (SF-295; CNS SF-295) | GI50 (DU-145; Prostate DU-145) | GI50 (KM20L2; Colon KM20L2) | GI50 (BXPC-3; Pancreas-a BXPC-3) | GI50 (Ovcar-3; Ovarian Ovcar-3) | ED50 (P388)
1 | O=C1N[C@H]2[C@H](O)[C@H](O)[C@@H](O)[C@H](O)[C@@H]2c2cc3c(c(O)c21)OCO3 [Compound 1a, (+)-Pancratistatin] | 0.048 µg/mL (≈ 0.148 µM) | 0.43 µg/mL (≈ 1.32 µM) | 0.091 µg/mL (≈ 0.28 µM) | 0.017 µg/mL (≈ 0.0523 µM) | 0.032 µg/mL (≈ 0.0984 µM) | 0.016 µg/mL (≈ 0.0492 µM) | 0.1 µg/mL (≈ 0.307 µM) | 0.23 µg/mL (≈ 0.707 µM) | 0.026 µg/mL (≈ 0.0799 µM) | 0.028 µg/mL (≈ 0.0861 µM) | 0.14 µg/mL (≈ 0.43 µM) | 0.032 µg/mL (≈ 0.0984 µM) | 0.11 µg/mL (≈ 0.338 µM) | – | – | – | – | – | – | –
2 | O=C1N[C@@H]2C(=C[C@H](O)[C@@H](O)[C@H]2O)c2cc3c(c(O)c21)OCO3 [Compound 2, (+)-narciclasine, reference compound] | – | 0.1 µg/mL (≈ 0.325 µM) | 0.049 µg/mL (≈ 0.159 µM) | – | 0.0044 µg/mL (≈ 0.0143 µM) | – | 0.036 µg/mL (≈ 0.117 µM) | 0.012 µg/mL (≈ 0.0391 µM) | – | – | 0.045 µg/mL (≈ 0.146 µM) | – | 0.044 µg/mL (≈ 0.143 µM) | 0.022 µg/mL (≈ 0.0716 µM) | 0.012 µg/mL (≈ 0.0391 µM) | 0.0071 µg/mL (≈ 0.0231 µM) | 0.018 µg/mL (≈ 0.0586 µM) | 0.016 µg/mL (≈ 0.0521 µM) | 0.016 µg/mL (≈ 0.0521 µM) | –
3 | CC1(C)O[C@@H]2[C@H](O1)[C@@H](O)C=C1c3cc4c(c(O)c3C(=O)N[C@H]12)OCO4 [Compound 3, Narciclasine 3,4-acetonide] | > 10 µg/mL | >10 µg/mL | >10 µg/mL | > 10 µg/mL | >10 µg/mL | > 10 µg/mL | >10 µg/mL | >10 µg/mL | > 10 µg/mL | > 10 µg/mL | >10 µg/mL | > 10 µg/mL | >10 µg/mL | – | – | – | – | – | – | –
4 | CC(=O)Oc1c2c(cc3c1C(=O)NC1C3=CC(OC(C)=O)C3OC(C)(C)OC13)OCO2 (stereo not shown) [Compound 4, 2,7-Di-acetoxy-narciclasine 3,4-acetonide] | – | >10 µg/mL | >10 µg/mL | – | >10 µg/mL | – | >10 µg/mL | >10 µg/mL | – | – | >10 µg/mL | – | >10 µg/mL | >10 µg/mL | >10 µg/mL | >10 µg/mL | >10 µg/mL | >10 µg/mL | >10 µg/mL | –
5 | CC(=O)OC1C=C2c3cc4c(c(O)c3C(=O)NC2C2OC(C)(C)OC12)OCO4 (stereo not shown) [Compound 5, 2-Acetoxy-narciclasine 3,4-acetonide] | – | >10 µg/mL | >10 µg/mL | – | >10 µg/mL | – | >10 µg/mL | >10 µg/mL | – | – | >10 µg/mL | – | >10 µg/mL | >10 µg/mL | >10 µg/mL | >10 µg/mL | >10 µg/mL | >10 µg/mL | >10 µg/mL | –
6 | CC(=O)Oc1c2c(cc3c1C(=O)NC1C4OC(C)(C)OC4C(OC(C)=O)C4OC314)OCO2 (stereo not drawn) [Compound 6, 1,10b-α-epoxy-2,7-diacetoxy-narciclasine 3,4-acetonide] | – | >10 µg/mL | >10 µg/mL | – | >10 µg/mL | – | >10 µg/mL | >10 µg/mL | – | – | >10 µg/mL | – | >10 µg/mL | >10 µg/mL | >10 µg/mL | >10 µg/mL | >10 µg/mL | >10 µg/mL | >10 µg/mL | –
7 | COC1c2c([nH]c(=O)c3c(O)c4c(cc23)OCO4)C2OC(C)(C)OC2C1O (stereo not shown) [Compound 7, 1-Methoxy-Isonarciclasine 3,4-acetonide] | – | >10 µg/mL | >10 µg/mL | – | >10 µg/mL | – | >10 µg/mL | >10 µg/mL | – | – | >10 µg/mL | – | >10 µg/mL | >10 µg/mL | >10 µg/mL | >10 µg/mL | >10 µg/mL | >10 µg/mL | >10 µg/mL | –
8 | CC1(C)O[C@@H]2[C@@H](O)[C@@H](O)[C@@H]3c4cc5c(c(O)c4C(=O)N[C@H]3[C@@H]2O1)OCO5 [Compound 8, 1-Isopancratistatin 3,4-acetonide] | > 10 µg/mL | >10 µg/mL | >10 µg/mL | 7.2 µg/mL (≈ 19.7 µM) | 2.6 µg/mL (≈ 7.12 µM) | 3.8 µg/mL (≈ 10.4 µM) | >10 µg/mL | >10 µg/mL | 6.9 µg/mL (≈ 18.9 µM) | 8.8 µg/mL (≈ 24.1 µM) | >10 µg/mL | 5 µg/mL (≈ 13.7 µM) | >10 µg/mL | – | – | – | – | – | – | –
9 | CC1(C)O[C@@H]2[C@@H](O)[C@@H](O)[C@H]3c4cc5c(c(O)c4C(=O)N[C@H]3[C@@H]2O1)OCO5 [Compound 9, B/C Cis-1-Isopancratistatin 3,4-acetonide] | – | >10 µg/mL | >10 µg/mL | – | >10 µg/mL | – | >10 µg/mL | >10 µg/mL | – | – | >10 µg/mL | – | >10 µg/mL | >10 µg/mL | >10 µg/mL | >10 µg/mL | >10 µg/mL | >10 µg/mL | >10 µg/mL | –
10 | CC1(C)O[C@@H]2[C@@H](O)[C@H]3OC34c3cc5c(c(O)c3C(=O)N[C@H]4[C@@H]2O1)OCO5 (stereo partly drawn) [Compound 10, 1,10b-α-epoxy-narciclasine 3,4-acetonide] | > 10 µg/mL | >10 µg/mL | >10 µg/mL | > 10 µg/mL | >10 µg/mL | > 10 µg/mL | >10 µg/mL | >10 µg/mL | > 10 µg/mL | > 10 µg/mL | >10 µg/mL | > 10 µg/mL | >10 µg/mL | – | – | – | – | – | – | –
11 | CC1(C)O[C@H]2[C@@H]3NC(=O)c4c(cc5c(c4O)OCO5)[C@H]3C3OS(=O)(=O)O[C@@H]3[C@H]2O1 (stereo partly shown) [Compound 12, 1-Isopancratistatin 1,2 Cyclic Sulfate-3,4-acetonide] | > 10 µg/mL | >10 µg/mL | >10 µg/mL | > 10 µg/mL | >10 µg/mL | > 10 µg/mL | >10 µg/mL | >10 µg/mL | > 10 µg/mL | > 10 µg/mL | >10 µg/mL | > 10 µg/mL | >10 µg/mL | – | – | – | – | – | – | –
12 | O=C(OC1C(O)C(O)C(O)C2NC(=O)c3c(cc4c(c3O)OCO4)C21)c1ccccc1 (stereo not shown) [Compound 13, Pancratistatin 1-Benzoate] | – | – | 0.0049 µg/mL (≈ 0.0114 µM) | – | – | – | 0.0026 µg/mL (≈ 0.00606 µM) | 0.0034 µg/mL (≈ 0.00792 µM) | – | – | 0.0053 µg/mL (≈ 0.0123 µM) | – | 0.0019 µg/mL (≈ 0.00442 µM) | <0.001 µg/mL | 0.0013 µg/mL (≈ 0.00303 µM) | – | <0.001 µg/mL | 0.00094 µg/mL (≈ 0.00219 µM) | <0.001 µg/mL | 0.0017 µg/mL (≈ 0.00396 µM)

— patent publication US6949647B2, “Synthesis of pancratistatin” (Arizona Board of Regents, priority 2000, dated 2005)
